Source: paper PMC2920882 (BMC Cancer, 2010)
“Also recorded” adds a separate entry of the source. Numbered stars: 1 amine (or outer) side, 2 acyl side, 3 side chain; on linkers, the order of the positions; unused ones are H or OH. Bridge positions count the residues as written; N and C are the ends. Square brackets hold non-standard residues; d marks the D form. Peptide text beside a SMILES is read from it. I, II: the chains in the order shown. Gly(N-piperonyl) = O=C(O)CNCc1ccc2c(c1)OCO2; X1 = CC(CN(CC(=O)[*:2])[*:1])c1ccccc1; Nleu = CC(C)CNCC(=O)O; Nlys = NCCCCNCC(=O)O; Ahx = NCCCCCC(=O)O; Nme = COCCNCC(=O)O; βAla = NCCC(=O)O

Experiments:
VEGFR2 = target: T1, VEGFR2 (Homo sapiens, UniProt P35968); assay: Fluorescence-based ELISA, VEGFR2 binding; conditions: vs GU40C4 (ref 12)
T1 construct: purchased R&D Systems
T1 sequence (P35968 20-1356): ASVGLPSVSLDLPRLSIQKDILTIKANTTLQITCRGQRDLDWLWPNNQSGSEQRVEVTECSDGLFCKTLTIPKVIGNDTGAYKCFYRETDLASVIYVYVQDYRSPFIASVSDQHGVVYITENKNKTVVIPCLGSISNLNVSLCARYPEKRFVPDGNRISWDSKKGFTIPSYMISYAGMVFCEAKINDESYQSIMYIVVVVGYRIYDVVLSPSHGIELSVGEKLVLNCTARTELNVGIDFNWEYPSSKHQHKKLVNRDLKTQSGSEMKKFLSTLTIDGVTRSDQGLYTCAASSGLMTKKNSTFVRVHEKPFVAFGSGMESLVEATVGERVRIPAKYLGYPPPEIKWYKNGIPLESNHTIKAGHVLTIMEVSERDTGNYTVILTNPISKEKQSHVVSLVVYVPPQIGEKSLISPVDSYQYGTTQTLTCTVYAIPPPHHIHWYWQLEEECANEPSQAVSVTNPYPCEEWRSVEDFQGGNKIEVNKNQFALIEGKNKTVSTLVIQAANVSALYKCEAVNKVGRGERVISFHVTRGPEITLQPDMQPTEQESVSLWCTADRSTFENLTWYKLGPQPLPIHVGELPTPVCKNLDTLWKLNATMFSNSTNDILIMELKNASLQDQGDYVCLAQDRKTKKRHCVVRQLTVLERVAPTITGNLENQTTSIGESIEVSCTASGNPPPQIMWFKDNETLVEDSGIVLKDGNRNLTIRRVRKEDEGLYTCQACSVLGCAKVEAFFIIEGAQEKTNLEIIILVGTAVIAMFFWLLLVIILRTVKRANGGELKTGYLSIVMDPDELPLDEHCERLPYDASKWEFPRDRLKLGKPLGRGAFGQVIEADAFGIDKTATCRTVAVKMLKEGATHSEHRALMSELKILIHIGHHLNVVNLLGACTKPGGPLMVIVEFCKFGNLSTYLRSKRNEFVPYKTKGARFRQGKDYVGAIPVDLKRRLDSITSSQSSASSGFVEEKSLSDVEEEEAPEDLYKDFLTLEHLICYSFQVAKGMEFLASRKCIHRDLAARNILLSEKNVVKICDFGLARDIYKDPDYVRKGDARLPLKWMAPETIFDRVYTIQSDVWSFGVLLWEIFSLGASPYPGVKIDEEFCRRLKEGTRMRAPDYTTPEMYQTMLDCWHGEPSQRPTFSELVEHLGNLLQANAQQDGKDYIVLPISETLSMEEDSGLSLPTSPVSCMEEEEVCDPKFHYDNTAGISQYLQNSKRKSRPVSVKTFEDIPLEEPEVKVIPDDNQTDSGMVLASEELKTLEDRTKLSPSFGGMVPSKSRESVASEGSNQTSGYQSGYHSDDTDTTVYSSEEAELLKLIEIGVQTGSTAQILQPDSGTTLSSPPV
Description: Wells were washed with 5 × 200 μL of PBS and fluorescence was measured at 520 nm using a plate reader (Fluostar Optima, BMG Laboratories, Durham, NC).

MMTV-PyMT tumors [1] = assay: H&E histology of MMTV-PyMT tumors; conditions: formalin-fixed tumors after 19 days treatment
Met-1 cells [2] = conditions: 2.5 μM GU81, 72 hours, serum-free DMEM, p < 0.05 vs SFM, 1-way ANOVA
Description: Tumor-conditioned media (TCM) was collected and RNA harvested using TRIzol (Invitrogen) according to the manufacturer's directions at 24, 48, and 72 hours post-treatment. The quality of RNA was evaluated using spectrophotometry. The cDNA used for subsequent PCR was made using iScript (Bio-Rad Laboratories). The expression of VEGF was analyzed by quantitative real-time PCR using assay on demand from Applied Biosystems (Mm00437308_m1). […] Quantitative real-time PCR was performed in a reaction volume of 20 μL of cDNA and each reaction was performed in triplicate. We used the comparative Ct method to compute relative expression values. TCM was diluted 1:5 prior to analysis for VEGF concentration using the Quantikine Mouse VEGF Immunoassay (R&D Systems).
Results are expressed as mean ± SEM.

HUVEC = conditions: when compared to GU40C4
MMTV-PyMT tumors [3] = assay: F4/80 macrophage infiltration immunohistochemistry; conditions: percent F4/80 positive area, p ≤ 0.05 vs control, t-test; 3 animals/group, 5 sections/animal
MMTV-PyMT tumors [4] = assay: Perilipin and adiponectin immunohistochemistry of MMTV-PyMT tumors (tumor fat content); conditions: for tumor fat content (residual adipose tissue): MMTV-PyMT tumors after 19 days treatment, H&E and adipocyte markers
MMTV-PyMT tumors [5] = assay: Endomucin immunohistochemistry (vessel number, vascular area, vessel size)
MMTV-PyMT tumors [6] = conditions: cited from earlier work
Description: Macrophage infiltration is associated with poor prognosis in a number of different tumor types, including breast cancer. […] This increase in macrophage infiltration is puzzling ...

[7] = test system: MMTV-PyMT transgenic model of breast cancer; assay: MMTV-PyMT breast cancer therapy study: tumor volume, tumor weight, efficacy; conditions: for tumor volume vs control: MMTV-PyMT mice, 19 days from age 6 weeks, GU81 260 μg/day osmotic pump, doxorubicin 2 mg/kg once weekly, 2-way ANOVA; for total tumor weight vs control: at sacrifice (age 60 days), p ≤ 0.01 for combination, 1-way ANOVA
MMTV-PyMT tumors [8] = assay: Tumor VEGF immunohistochemistry; conditions: percent VEGF positive area, vs control, p ≤ 0.05 for GU81 alone, t-test; 3 animals/group, 5 sections/animal
[9] = test system: MMTV-PyMT transgenic model of breast cancer; conditions: cited from earlier work
Met-1 cells [10] = conditions: GU81 treatment, mRNA and protein
[11] = test system: 4T1 syngenic breast cancer model; conditions: 4T1 syngeneic model; cited from earlier work
VEGFR2 (PAE-KDR cells) = target: T2, VEGFR2 (PAE-KDR cells) (Homo sapiens, UniProt P35968); assay: VEGFR2 autophosphorylation assay, PAE-KDR cells; assay type: cell-based
T2 construct: host or cells: PAE-KDR cells
T2 sequence (P35968 20-1356): as above
Description: Experiments were conducted using PAE-KDR (Sibtech Inc., Brookfield, CT) and HUVEC (Sciencecell, Carlsbad, CA) cells. […] Cells were harvested with lysis buffer, and lysates were separated by SDS-PAGE and transferred to PVDF membranes. Membranes were probed with anti phospho-VEGF receptor 2 (Tyr1175, 19A10) or total anti-VEGFR2 primary antibodies (Cell Signaling Technology, Danvers, MA) and subsequently developed with appropriate HRP-conjugated secondary antibody (BioRad Laboratories, Hercules, CA) followed by enhanced chemiluminescent detection (Pierce).

MMTV-PyMT tumors [12] = test system: MMTV-PyMT tumors

## COCCN(CC(=O)N(CC(=O)N(CC(=O)N(CCCCN)CC(=O)N(CC(=O)N(CCCCN)CC(=O)N(CCCCN)CC(=O)NCCCCCC(=O)NCCC(=O)N[C@@H](CCCCNC(=O)CN(CCCCN)C(=O)CN(CCCCN)C(=O)CN(CC(C)C)C(=O)CN(CCCCN)C(=O)CN(Cc1ccc2c(c1)OCO2)C(=O)CN(CC(C)c1ccccc1)C(=O)CN(CCOC)C(=O)CN(CC(C)C)C(=O)CNCCCCN)C(N)=O)CC(C)C)Cc1ccc2c(c1)OCO2)CC(C)c1ccccc1)C(=O)CN(CC(C)C)C(=O)CNCCCCN (stereo partly drawn) [GU81] (I: H-[Nlys][Nleu][Nme][X1][Gly(N-piperonyl)][Nlys][Nleu][Nlys][Nlys][Ahx][βAla]K-NH2 / II: H-[Nlys][Nleu][Nme][X1][Gly(N-piperonyl)][Nlys][Nleu][Nlys][Nlys]; amide I:12-II:C)
VEGFR2
  improvement of KD over the original GU40C4: 3 -fold
MMTV-PyMT tumors [1]
  tumor histology / progression / invasion: no effect on tumor weight, histology, tumor fat content, or tumor growth index; also recorded: did not alter this histology
MMTV-PyMT tumors [1]; listed as GUI81
  tumor histology / progression / invasion: clearly invasive adenocarcinomas
Met-1 cells [2]
  VEGF mRNA level in Met-1 cells: significantly increased after 72 hours of GU81 treatment; also recorded: significant increase in VEGF gene transcription following 72 hrs of GU81 treatment
HUVEC
  expected inhibition of endothelial cell proliferation: more potent inhibitor of endothelial cell proliferation when compared to GU40C4
MMTV-PyMT tumors [3]
  macrophage infiltration vs control: increased tumor-VEGF levels and macrophage infiltration; also recorded: significantly increased following treatment with GU81; also recorded: induces macrophage infiltration in vivo
MMTV-PyMT tumors [4]
  tumor fat content (residual adipose tissue): no effect on tumor weight, histology, tumor fat content, or tumor growth index
MMTV-PyMT tumors [5]; endomucin, vessels per 200× field, 3 animals/group, 5 sections/animal
  total vessel number: no effect on total vessel number; also recorded: do not see a decrease in vessel number
MMTV-PyMT tumors [5]; percent endomucin positive area per 200× field, vs control, p < 0.001, t-test
  total vascular area, GU81 alone: able to significantly to reduce total vascular area as a single agent; also recorded: decreased total vascular area; also recorded: reduces total vascular area and vessel size; also recorded: decrease in total vascular area and vessel size
MMTV-PyMT tumors [5]; percent fluorescent area divided by total vessel number, vs control, t-test
  vessel size: reduces total vascular area and vessel size; also recorded: decrease in total vascular area and vessel size
MMTV-PyMT tumors [6]
  macrophage infiltration, single agent: increases macrophage infiltration as a single-agent
[7]; GU81 260 μg/day alone or with doxorubicin 2 mg/kg once weekly, 19 days
  therapeutic efficacy in MMTV-PyMT model: little therapeutic efficacy when used alone; also recorded: not effective as a single agent in the MMTV-PyMT model of breast cancer
[7]
  tumor volume vs control: did not have a significant effect on either tumor volume or tumor weight
  total tumor weight vs control: no effect on tumor weight, histology, tumor fat content, or tumor growth index; also recorded: did not have a significant effect on either tumor volume or tumor weight
MMTV-PyMT tumors [8]
  tumor VEGF level: increased tumor-VEGF levels and macrophage infiltration; also recorded: significantly increased levels of VEGF compared to tumors from control-treated mice; also recorded: increased tumor VEGF expression in this model
[9]
  in vivo efficacy as a single agent, MMTV-PyMT model: does not demonstrate in vivo efficacy as a single agent in the MMTV-PyMT model of breast cancer
Met-1 cells [10]
  VEGF expression in Met-1 cells (discussion): increased VEGF expression following treatment with GU81
[11]
  tumor size, 4T1 model, single agent: effectively reduces tumor size and MVD
VEGFR2 (PAE-KDR cells); PAE-KDR cells, increasing concentrations of GU81 15 min, VEGF 1.3 nM 7 min, 37°C, Western blot
  block of VEGF-induced VEGFR2 phosphorylation: effectively blocks VEGF-induced VEGFR2 phosphorylation of PAE-KDR cells in a dose-dependent manner
VEGFR2 (PAE-KDR cells); abstract: compared to GU40C4, discussion: in vitro biological efficacy
  in vitro efficacy: increased in vitro efficacy compared to GU40C4; also recorded: potent in vitro biological efficacy

## COc1cccc2c1C(=O)c1c(O)c3c(c(O)c1C2=O)C[C@@](O)(C(=O)CO)C[C@@H]3O[C@H]1C[C@H](N)[C@H](O)[C@H](C)O1 [doxorubicin, reference compound]
MMTV-PyMT tumors [1]
  tumor histology / progression / invasion: no effect on tumor weight, histology, tumor fat content, or tumor growth index; also recorded: displayed areas of invasive carcinoma; although the invasive component of the tumor was reduced when compared to control and GU81-treated animals; also recorded: clearly invasive adenocarcinomas
MMTV-PyMT tumors [4]; Cy3 positive area, vs control, p≤0.05, t-test
  adiponectin staining vs control: significantly increased
MMTV-PyMT tumors [4]
  tumor fat content (residual adipose tissue): no effect on tumor weight, histology, tumor fat content, or tumor growth index
[7]
  tumor volume vs control: significantly reduced tumor volume compared to control treated animals
  total tumor weight vs control: no effect on tumor weight, histology, tumor fat content, or tumor growth index
MMTV-PyMT tumors [8]
  tumor VEGF level: neither treatment with doxorubicin alone or in combination with GU81 had significant effects on VEGF expression
MMTV-PyMT tumors [12]; from proliferation, apoptosis and growth index
  cytostatic / cytocidal character of the therapy: cytostatic
MMTV-PyMT tumors [12]; phospho-histone-3 / cleaved caspase-3 positive cells per 200× field, vs control, p ≤ 0.05 for combination, 1-way ANOVA
  tumor growth index vs control: no effect on tumor weight, histology, tumor fat content, or tumor growth index
MMTV-PyMT tumors [12]; vs control, p ≤ 0.01 (doxorubicin, combination), 1-way ANOVA, 3 animals/group, 5 sections/animal
  phospho-histone-3 positive cells (proliferation) vs control: fewer phospho-histone-3 positive cells when compared to tumors from control treated animals
MMTV-PyMT tumors [12]; vs control, p ≤ 0.05 (doxorubicin), 1-way ANOVA, 3 animals/group, 5 sections/animal
  cleaved (active) caspase-3 positive cells (apoptosis) vs control: significantly fewer active caspase-3 positive cells when compared to tumors from control-treated animals
